# Data as given in paper PMC5078989, “Targeted inhibition of the COP9 signalosome for treatment of cancer” (Nature Communications, 2016).
# System: panel of cancer cell lines
# Assay: Cell viability (CellTiter-Glo) dose-response across cancer cell line panel;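 for EC50: after 72 h compound incubation with CellTiter-Glo ATP readout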
# Assay type: cell-based, human
# Conditions: for EC50: Homo sapiens
# Text: Next, we explored the effect of CSN5 inhibition on the viability of cancer cells. To obtain a comprehensive picture, we generated dose–response curves with a CSN5 inhibitor across more than 500 cancer cell lines in a previously described standardized setting[47] (Supplementary Data 1).
# A standardized CellTiter-Glo Assay (Promega #G7570) based on the quantification of ATP was applied according to the manufacturer's protocol to measure the amount of viable cells in culture. In brief, cells were seeded into 384-well plates at optimal density for each cell line. After 4 h, compounds were added at different concentrations in growth medium and incubated for another 72 h in a humidifying chamber at 37 °C and 5% CO2. […] EC50 values were calculated from the plot of percentage of inhibition versus inhibitor concentration using the nonlinear regression analysis software Origin 7.5SR6 (OriginLab Corp.).
structure (smiles),measurement,setting,value
"COCc1ccccc1NCc1ccc([C@H]2[C@@H](O)CCCc3cncn32)c(-c2ccccc2Cl)c1 [CSN5i-2, (5S,6S)-5-(2′-chloro-5-(((2-(methoxymethyl)phenyl)amino)methyl)-[1,1′-biphenyl]-2-yl)-6,7,8,9-tetrahydro-5H-imidazo[1,5-a]azepin-6-ol]",AMAX,59M,-68.225
same,AMAX,A101D,-76.7398
same,AMAX,A172,-55.6841
same,AMAX,A549,-65.9191
same,AMAX,A2780,-85.074
same,AMAX,ABC-1,-77.8125
same,AMAX,AM-38,-77.876
same,AMAX,AU565,-62.6343
same,AMAX,AsPC-1,-59.6849
same,AMAX,BFTC-909,-64.2004
same,AMAX,BICR 6,-79.1425
same,AMAX,BICR 16,-84.074
same,AMAX,Calu-6,-81.2731
same,AMAX,FaDu,-81.7331
same,AMAX,GP2d,-35.7458
same,AMAX,HARA,-63.4816
same,AMAX,HCC1143,-57.1762
same,AMAX,HCC1187,-75.8993
same,AMAX,HCC1954,-88.6962
same,AMAX,HD-MY-Z,-86.2175
same,AMAX,HEC-151,-65.4188
same,AMAX,HEL,-95.954
same,AMAX,HL-60,-90.6278
same,AMAX,HLC-1,-73.9563
same,AMAX,HLE,-90.9124
same,AMAX,HLF,-62.5035
same,AMAX,HSC-4,-75.9669
same,AMAX,HT-29,-64.9206
same,AMAX,HUP-T4,-81.3707
same,AMAX,Hep3B,-76.5642
same,EC50,59M,2650 nM
same,EC50,92.1,3880 nM
same,EC50,639-V,723 nM
same,EC50,697,477 nM
same,EC50,769-P,13900 nM
same,EC50,"786-0, 786-O",1050 nM
same,EC50,"1321-N1, 1321N1",3680 nM
same,EC50,8505C,829 nM
same,EC50,A4/Fuk,120 nM
same,EC50,A101D,372 nM
same,EC50,"A 172, A172",13400 nM
same,EC50,"A204, A-204",206 nM
same,EC50,"A498, A-498",1400 nM
same,EC50,"A549, A549",1410 nM
same,EC50,"A673, A-673",431 nM
same,EC50,"A704, A-704",1640 nM
same,EC50,"A2058, A2058",2050 nM
same,EC50,"A2780, A2780",279 nM
same,EC50,"A-375, A-375",690 nM
same,EC50,"ABC-1, ABC-1",485 nM
same,EC50,"ACC-MESO-1, ACC-MESO-1",2400 nM
same,EC50,"AM-38, AM-38",983 nM
same,EC50,AML-193,3210 nM
same,EC50,"AN3-CA, AN3 CA",2230 nM
same,EC50,"ASPC1, AsPC-1",4740 nM
same,EC50,"AU565, AU565",1350 nM
same,EC50,BC-3C,2030 nM
same,EC50,BEN,12500 nM
same,EC50,"BFTC-909, BFTC-909",7580 nM
same,EC50,BICR 6,1110 nM
same,EC50,BICR 16,1020 nM
same,EC50,BICR 31,1210 nM
same,EC50,"BT-16, BT-16",3280 nM
same,EC50,"BT-549, BT-549",296 nM
same,EC50,"BXPC-3, BxPC-3",6030 nM
same,EC50,C3A,> 30000 nM
same,EC50,"C32, C32",830 nM
same,EC50,"CAKI-1, Caki-1",845 nM
same,EC50,"CAKI-2, Caki-2",3040 nM
same,EC50,CAL-12T,474 nM
same,EC50,"CAL-27, CAL 27",713 nM
same,EC50,CAL-29,5690 nM
same,EC50,"CAL-54, CAL-54",1170 nM
same,EC50,"CAL-85-1, CAL-85-1",7990 nM
same,EC50,"CAL-120, CAL-120",6810 nM
same,EC50,"CAL-148, CAL-148",1680 nM
same,EC50,"CAMA-1, CAMA-1",20500 nM
same,EC50,"CAPAN-1, Capan-1",643 nM
same,EC50,CAS-1,705 nM
same,EC50,"CCRF-HSB-2, CCRF-HSB-2",150 nM
same,EC50,"CEM/C1, CEMC1",343 nM
same,EC50,"CFPAC-1, CFPAC-1",3540 nM
same,EC50,CL-14,> 30000 nM
same,EC50,CL-34,3880 nM
same,EC50,CMK,1800 nM
same,EC50,"CMK-86, CMK-86",1720 nM
same,EC50,"COLO 201, COLO 201",1120 nM
same,EC50,"COLO 205, COLO 205",12500 nM
same,EC50,"COLO 320, COLO-320",1400 nM
same,EC50,"COLO 699, COLO-699",3050 nM
same,EC50,"COLO 704, COLO-704",634 nM
same,EC50,"COLO-678, COLO-678",3410 nM
same,EC50,"COLO-679, COLO-679",492 nM
same,EC50,"COLO-741, COLO 741",1340 nM
same,EC50,"COLO-829, COLO 829",10700 nM
same,EC50,"COR-L23, COR-L23",11800 nM
same,EC50,"COR-L105, COR-L105",4940 nM
same,EC50,"COV362, COV362",8840 nM
same,EC50,COV644,1040 nM
same,EC50,"CW-2, CW-2",4950 nM
same,EC50,"Calu-1, Calu-1",13000 nM
same,EC50,"Calu-6, Calu-6",539 nM
same,EC50,"ChaGo-K-1, ChaGo-K-1",967 nM
same,EC50,"Ci-1, CI-1",193 nM
same,EC50,DAN-G,13400 nM
same,EC50,DB,290 nM
same,EC50,"DLD-1, DLD-1",> 30000 nM
same,EC50,"DMS-53, DMS 53",8760 nM
same,EC50,"DMS-153, DMS 153",405 nM
same,EC50,"DMS-273, DMS 273",691 nM
same,EC50,"DU-4475, DU4475",218 nM
same,EC50,Daoy,542 nM
same,EC50,"Detroit 562, Detroit 562",4000 nM
same,EC50,"EBC-1, EBC-1",5630 nM
same,EC50,"EOL1, EOL-1",262 nM
same,EC50,FaDu,550 nM
same,EC50,"Fu97, FU97",942 nM
same,EC50,"G-401, G-401",402 nM
same,EC50,"G-402, G-402",4100 nM
same,EC50,GAMG,2920 nM
same,EC50,"GB-1, GB-1",3900 nM
same,EC50,"GDM-1, GDM-1",162 nM
same,EC50,"GI-1, GI-1",3270 nM
same,EC50,GP2d,> 30000 nM
same,EC50,H4,790 nM
same,EC50,HARA,9030 nM
same,EC50,"HCC15, HCC-15",5200 nM
same,EC50,"HCC44, HCC-44",2380 nM
same,EC50,"HCC70, HCC70",2350 nM
same,EC50,"HCC78, HCC-78",2290 nM
same,EC50,"HCC95, HCC-95",18400 nM
same,EC50,"HCC827, HCC827",1780 nM
same,EC50,"HCC1143, HCC1143",6070 nM
same,EC50,"HCC1187, HCC1187",7500 nM
same,EC50,"HCC1588, HCC-1588",421 nM
same,EC50,"HCC1806, HCC1806",5450 nM
same,EC50,"HCC1954, HCC1954",2180 nM
same,EC50,"HCC4006, HCC4006",1730 nM
same,EC50,HCC-56,413 nM
same,EC50,HCC-1359,1870 nM
same,EC50,HCC-1833,3410 nM
same,EC50,"HCT-15, HCT-15",1360 nM
same,EC50,HD-MY-Z,531 nM
